“Also recorded” adds a separate entry of the source. Each block holds one compound with its values, some of them ahead of it.
Legend:
[1] = Drying of selected materials under vacuum at 45° C., solid form checked by XRPD; type: physicochemical
Experimental: (§1) XRPD patterns were collected with a PANalytical X'Pert PRO MPD or Empyrean diffractometer using an incident beam of Cu radiation produced using an Optix long, fine-focus source. An elliptically graded multilayer mirror was used to focus Cu Ku X-ray radiation through the specimen and onto the detector. Prior to the analysis, a silicon specimen (NIST SRM 640e) was analyzed to verify the observed position of the Si (111) peak is consistent with the NIST-certified position. A specimen of the sample was sandwiched between 3-μm-thick films and analyzed in transmission geometry. A beam-stop, short antiscatter extension, and antiscatter knife-edge were used to minimize the background generated by air. Soller slits for the incident and diffracted beams were used to minimize broadening from axial divergence. Diffraction patterns were collected using a scanning position-sensitive detector (X'Celerator) located 240 mm from the specimen and Data Collector software v. 5.5.

[2] = Competitive slurry experiment in acetone among Form A, Form D, Form B and Form E, XRPD; type: physicochemical; settings: for XRPD Results after competitive slurry of Forms A, D, B, E: acetone pre-saturated with Form A, 7 d, solids analyzed wet
Excerpt: At each condition, similar amounts of solids from the four forms/materials were slurried in pre-saturated solutions at the examined temperature conditions for 7 days; solids were then isolated and analyzed wet by XRPD.
as §1

[3] = target: T1, glucokinase (Homo sapiens, UniProt P35557); settings: cited from earlier work
T1 sequence (P35557 1-465): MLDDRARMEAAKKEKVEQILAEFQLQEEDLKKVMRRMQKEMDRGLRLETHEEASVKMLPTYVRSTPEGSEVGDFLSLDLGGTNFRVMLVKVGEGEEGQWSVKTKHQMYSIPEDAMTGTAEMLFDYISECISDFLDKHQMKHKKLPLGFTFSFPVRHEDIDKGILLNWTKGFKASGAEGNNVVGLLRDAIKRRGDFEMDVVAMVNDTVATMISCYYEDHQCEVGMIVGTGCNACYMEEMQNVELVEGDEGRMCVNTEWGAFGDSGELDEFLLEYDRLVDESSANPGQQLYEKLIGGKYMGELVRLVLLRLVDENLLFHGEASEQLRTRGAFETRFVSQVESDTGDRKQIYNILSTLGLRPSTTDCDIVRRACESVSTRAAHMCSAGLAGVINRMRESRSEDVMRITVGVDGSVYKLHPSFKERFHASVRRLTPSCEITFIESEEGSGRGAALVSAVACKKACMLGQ

[4] = Stable form and hydrate screen via slurry-trituration experiments; type: physicochemical; settings: anh. EtOH, 55° C., 7 d, brown suspension
Experimental: Slurry triburation experiments target the stable forms, including stable solvates and hydrates.
The slurry-trituration experiments were conducted by stirring solids of Compound I in specified solvents and solvent mixtures at various temperatures for 7 days (elevated temperature) or 14-18 days (ambient and sub-ambient temperatures). A summary of experimental conditions and results is detailed in Table 13.
as §1

[5] = Polymorph screen (evaporation, cooling, slurry, solvent/anti-solvent); type: physicochemical; settings: EtOAc/HFIPA (36:64), stirred at 60° C. 1 d, FC to ice/water bath, FE w/N2 purge
Excerpt: Solids of Compound I unless noted otherwise, was used as the starting material. Materials produced in the study were utilized for selected experiments.
Solutions of starting material were allowed to partially evaporate or evaporate to dryness at ambient or elevated temperature from open vials for fast evaporation (FE) or from vials covered with aluminum foil with pin holes for slow evaporation (SE). Prior to evaporation, solutions were filtered at ambient or elevated temperature using 0.2 μm nylon filters.
Solutions of starting material were prepared in specified solvents at elevated temperature using a hot plate for heating. These were typically hot-filtered through a 0.2 μm nylon filter into warm receiving vials. […]
XRPD patterns were collected with a PANalytical X'Pert PRO MPD or Empyrean diffractometer using an incident beam of Cu radiation produced using an Optix long, fine-focus source. […] Prior to the analysis, a silicon specimen (NIST SRM 640e) was analyzed to verify the observed position of the Si (111) peak is consistent with the NIST-certified position. A specimen of the sample was sandwiched between 3-μm-thick films and analyzed in transmission geometry. […]

XRPD Results after drying ([1]; vacuum/45° C./1 d, listed as Compound I Form I): Compound I Form B
Compound: CCCO[C@H]1CC[C@H](N(C(=O)Nc2ncc(SCC(=O)O)s2)C2CCCCC2)CC1 [Form I, {2-[3-cyclohexyl-3-(trans-4-propoxy-cyclohexyl)-ureido]-thiazol-5-ylsulfanyl}-acetic acid]
Solid form change upon drying / desolvation [1]: converts to Form E or solids similar to Form E upon drying

XRPD Results after drying ([1]; vacuum/45° C./1 d): disordered
Compound: CCCO[C@H]1CC[C@H](N(C(=O)Nc2ncc(SCC(=O)O)s2)C2CCCCC2)CC1 [Compound I Material G, {2-[3-cyclohexyl-3-(trans-4-propoxy-cyclohexyl)-ureido]-thiazol-5-ylsulfanyl}-acetic acid]

XRPD Results after drying ([1]; vacuum/45° C./1 d): Compound I Form B +
Compound: CCCO[C@H]1CC[C@H](N(C(=O)Nc2ncc(SCC(=O)O)s2)C2CCCCC2)CC1 [Compound I Form E + minor Form A, {2-[3-cyclohexyl-3-(trans-4-propoxy-cyclohexyl)-ureido]-thiazol-5-ylsulfanyl}-acetic acid]

Solid form change upon drying / desolvation [1]: become disordered upon drying
XRPD Results after drying ([1]; vacuum/45° C./3 d, listed as Compound I Form G): disordered
Compound: CCCO[C@H]1CC[C@H](N(C(=O)Nc2ncc(SCC(=O)O)s2)C2CCCCC2)CC1 [Form G, {2-[3-cyclohexyl-3-(trans-4-propoxy-cyclohexyl)-ureido]-thiazol-5-ylsulfanyl}-acetic acid]

Solid form change upon drying / desolvation [1]: converts to Form D upon drying
XRPD Results after drying ([1]; vacuum/45° C./3 d, listed as Compound I Form F): Compound I Form D
Compound: CCCO[C@H]1CC[C@H](N(C(=O)Nc2ncc(SCC(=O)O)s2)C2CCCCC2)CC1 [Form F, {2-[3-cyclohexyl-3-(trans-4-propoxy-cyclohexyl)-ureido]-thiazol-5-ylsulfanyl}-acetic acid]

XRPD Results after competitive slurry of Forms A, D, B, E ([2]; 2-8° C.): Form A
XRPD Results after competitive slurry of Forms A, D, B, E ([2]; 45° C.): Form A
XRPD Results after competitive slurry of Forms A, D, B, E ([2]; RT): Form A
Relative stability among anhydrous forms A, B, D, E ([2]; within 2-8° C. to 45° C., based on competitive slurries): likely the most stable form
Compound: CCCO[C@H]1CC[C@H](N(C(=O)Nc2ncc(SCC(=O)O)s2)C2CCCCC2)CC1 [Form A, {2-[3-cyclohexyl-3-(trans-4-propoxy-cyclohexyl)-ureido]-thiazol-5-ylsulfanyl}-acetic acid]

Solid form change upon drying / desolvation [1]: desolvates into Form D
XRPD Results after drying ([1]; vacuum/45° C./1 h): Compound I Form D
XRPD Results after drying ([1]; vacuum/45° C./1 d, listed as Compound I Form C): Compound I Form D ±
Compound: CCCO[C@H]1CC[C@H](N(C(=O)Nc2ncc(SCC(=O)O)s2)C2CCCCC2)CC1 [Form C, {2-[3-cyclohexyl-3-(trans-4-propoxy-cyclohexyl)-ureido]-thiazol-5-ylsulfanyl}-acetic acid]

XRPD Result after slurry-trituration [4]: decomposed
XRPD Result after polymorph screen experiment [5]: decomposed
Compound: CCCO[C@H]1CC[C@H](N(C(=O)Nc2ncc(SCC(=O)O)s2)C2CCCCC2)CC1 [Compound I, {2-[3-cyclohexyl-3-(trans-4-propoxy-cyclohexyl)-ureido]-thiazol-5-ylsulfanyl}-acetic acid]
Glycemic control ([3]; oral, liver selective glucokinase activator): improves glycemic control
Adverse effects (hypoglycemia, dyslipidemia/increased TG, liver glycogen and TG, loss of efficacy) ([3]; therapeutically relevant doses, compared with other GK activators): does not cause similar adversarial effects; also recorded: may not induce hypoglycemia, dyslipidemia, or pathological increases of glycogen and TG in the liver

Solid form change upon drying / desolvation [1]: become disordered upon drying
Compound: CCCO[C@H]1CC[C@H](N(C(=O)Nc2ncc(SCC(=O)O)s2)C2CCCCC2)CC1 [Form H, {2-[3-cyclohexyl-3-(trans-4-propoxy-cyclohexyl)-ureido]-thiazol-5-ylsulfanyl}-acetic acid]

— US12709603B2, “Crystalline forms of {2-[3-cyclohexyl-3-(trans-4-propoxy-cyclohexyl)-ureido]-thiazol-5-ylsulfanyl}-acetic acid and uses thereof” (vTv Therapeutics LLC, priority 2020, dated 2026)
